Results from patent EP2487185A1, “Hexapeptide with improved activity in the repair of cellular DNA of dermal cells” (Clinuvel Pharmaceuticals Limited, priority 2011, dated 2012).
Non-standard residues stand in square brackets, D forms with d. Nle = CCCC[C@H](N)C(=O)O

How the values were obtained:
melanocytes strain 1513c = test: cAMP levels (125I radioimmunoassay), dose-response; type: cell-based, human; conditions: 45 min, 0.1 mM IBMX; for maximal level of cAMP: at 10 nM
Description: Dose-response experiments were carried out on three melanocytic strains, namely strains 1513c, 1505b and 105c melanocytes were treated with 1 pM-10 nM CUV9900 or NDP-MSH, or with 0.1-10 nM MSH for 45 minutes in the presence of 0.1 mM isobutyl methylxanthine (IBMX). The results obtained from strain 1513c are shown in Fig. 3, the results obtained from strain 1505b are shown in Fig. 5a and the results obtained from strain 105c are shown in Fig. 5b. The strains 1505b and 1513c were obtained from the same human adult while the strain 105c was obtained from another human adult. Cyclic AMP is the second messenger for the melanocortin-1 receptor, and assessment is usually performed indicating cellular activity reflective of melanogenesis. Cyclic AMP levels were determined using ^125I-labeled radioimmunoassay kit (Perkin Elmer, Waltham, MA), in human melanocytes that were treated with 0 (control), 0.1-10.0 nM α-MSH, or 0.001-10 nM NDP-MSH or 0.001-10.0 nM CUV 9900 for 45 min. in the presence of 0.1 mM IBMX, a phosphodiesterase inhibitor to prevent cAMP degradation. Triplicate wells were included in each group, and duplicate samples from each well were assayed for cAMP levels. Each data point is the mean percent of control of 6 determinations/group ±S.E.

melanocyte strain 1513c = test: Tyrosinase activity as a measure of stability / residual effect; type: cell-based, human; conditions: for Tyrosinase activity, column 3: 4 days after peptide removal
Description: To determine the residual effect of CUV9900, as compared to NDP-MSH and α-MSH, on tyrosinase activity, melanocytes were treated with either CUV9900 or NDP-MSH at the concentrations previously described for a total of 3 days. Tyrosinase activity was measured at the end of the 3 days of treatment, and 2 and 4 days after maintenance of the melanocytes in the complete absence of any treatment. With continued reference to Figs. 7, 8 and 9, to determine the stability of CUV9900 versus that of NDP-MSH and α-MSH, melanocytes were treated with 1 nM of each peptide, namely with CUV9900, NDP-MSH and α-MSH, for a total of 6 days, or with 1 nM peptides that were incubated for 5 hours at 37 °C prior to addition to the cultures, every other day, for a total of 6 days. Tyrosinase activity was measured at the end of treatment. In the experiments, cell number represents the mean percent of control of 3 determinations/ group ±SE, and tyrosinase activity data represent the mean percent of control of 6 determinations ±S.E. It should be noted that for the sake of reproducibility the experiment of strain 1513c of Fig. 9 was performed once more 6 months later than the experiment of Fig. 7. […] Melanocytes were treated for 3 days with the designated concentrations of CUV9900, NDP-MSH, or MSH, then maintained in absence of peptides for 4 days. Tyrosinase activity was determined 3 days after treatment. Comparison of stability of CUV9900, NDP-MSH and MSH was compared in 1513c, as shown in Fig. 7; the strain was treated for 6 days with 1 nM CUV9900, NDP-MSH or MSH with fresh medium and peptide replenished every 2 days. Melanocytes were treated according to the same experiment protocol but each peptide was incubated for 5-7 hours at 37 degrees Celsius. […] The assessment of tyrosinase was statistically different from control, as determined by ANOVA (p=<0.05).

melanocyte strain 1505b = test: Cell proliferation as a measure of stability; type: cell-based, human; conditions: for Cell proliferation, column 2: Table 3, 1nM, column 2, not defined; for Cell proliferation, Mean: Table 3, mean of columns 1-3
melanocyte strain 102b = test: Tyrosinase activity, dose-response, 6 days treatment; type: cell-based, human
Description: Cell numbers as well as tyrosinase activity were then determined. Tyrosinase activity was calculated first at activity/10^6 cells, and then as % of control. Twenty-four hours prior the end of the experiment, melanocytes received ^3H-tyrosinase (0.7 µCi/ml medium). The conditioned medium from each dish was collected to be assayed for tyrosinase activity, and the cell numbers were determined using a Coulter Counter. Triplicate dishes were included in each group, and duplicate samples from each dish were assayed for tyrosinase activity. Each data point is the mean percent of control of 6 determinations/group ±S.E.

human melanocytes = test: DNA damage as measured by 8-oxo-dG (FITC-conjugated 8-oxo-dG antibody immunofluorescence); type: cell-based; conditions: for 8-oxo-dG, Arbitrary units: 37 Celsius, mean fluorescence intensity
Description: DNA damage of cultured melanocytes following UV irradiation leads to consistent levels of photoproducts such as 8-oxo-dG. It is well established in the art (dermal carcinogenesis) that 8-oxodG is a major form of UV induced oxidative DNA damage, which results from the generation of reactive oxygen species (ROS). The induction of 8-oxodG by 8-oxo-dGTP can be inhibited by pyrophosphohydrolases (8-[…]) that convert it to 8-oxo-dGMP. To elucidate the involvement of 8-oxo-[…] in carcinogenesis, an assay of the 8-oxo-[…] activity was used (Sigma Chemical Co. (USA) as well as a conjugated 8-oxo-dG antibodies (OxoDNA Assay Kit; Calbiochem/EMD Biosciences). Melanocytes were plated onto coverslips, and treated 48 h thereafter for 4 days prior to, and immediately after irradiation with 0 or 105 mJ/cm^2 UV, 0.1-10.0 nM α-MSH, with 0 (control) or 0.1-10.0 nM α-MSH, or 0.001-10 nM NDP-MSH or 0.001-10.0 nM CUV 9900. Two hours after UV exposure, cells were fixated with 4% paraformaldehyde in PBS, hydrated in increasing concentrations of cold methanol, and permeabilized in 99% methanol for 30 min at 4 °C. Melanocytes were incubated in blocking solution at 37 °C for 1 h and then with FITC-conjugated 8-oxo-dG antibody, or mouse IgG as a negative control, at 37 °C for 1 h. The IgG controls were then incubated with FITC-conjugated anti-mouse antibody. Immunofluorescence was detected using a microscope with FITC filters. Data were expressed as the mean fluorescence intensity ±S.E., determined using the densitometry values from 6-8 randomly obtained images, using the computer assisted program Alpha Inotech Imaging System and the AlphaEase FC StandAlone Software.

[1] = STRAIN 1513c [1], Table 4 (Fig. 7), 1nM, after 3 days of treatment
[2] = STRAIN 1513c [1], Table 4, 1nM, column 2, apparently 2 days after removal of peptides
[3] = STRAIN 1513c [2], Table 5 (Fig. 9), 1 nM, 6 days, fresh peptide
[4] = STRAIN 1513c [2], Table 5, 1 nM, 6 days, peptide incubated 5-7 hours at 37 degrees Celsius
[5] = over the 2 experiments in strain 1513c
[6] = 75%UVB 25% UVA, 105 mJ/cm^2, 2 h after UV

Substance | cAMP, potency comparison (melanocytes strain 1513c; at 0.1 nM) | maximal level of cAMP (melanocytes strain 1513c) | Tyrosinase activity, column 1 (melanocyte strain 1513c; [1]) | Tyrosinase activity, column 3 (melanocyte strain 1513c; STRAIN 1513c [1], Table 4, 1nM) | Tyrosinase activity, column 2 (melanocyte strain 1513c; [2]) | Tyrosinase activity, column 1 (melanocyte strain 1513c; [3]) | Tyrosinase activity, column 2 (melanocyte strain 1513c; [4]) | Tyrosinase activity, Mean (melanocyte strain 1513c; STRAIN 1513c [2], Table 5) | superior stability over MSH (tyrosinase activity) (melanocyte strain 1513c; [5]) | superior stability over NDP (tyrosinase activity) (melanocyte strain 1513c; [5]) | effect of incubation of the peptide on stimulation of tyrosinase activity (melanocyte strain 1513c; strain 1513c, 1 nM peptide incubated 5-7 hours at 37 degrees Celsius) | Cell proliferation, column 2 (melanocyte strain 1505b) | Cell proliferation, Mean (melanocyte strain 1505b) | minimal effective dose (tyrosinase activity) (melanocyte strain 102b; 6 days treatment) | stimulation of tyrosinase activity, comparison with NDP-MSH (melanocyte strain 102b; subnanomolar concentrations) | less damage than UV alone (8-oxo-dG) (human melanocytes) | 8-oxo-dG, Arbitrary units (human melanocytes; [6]) | 8-oxo-dG, Arbitrary units (human melanocytes; Source None (no UV irradiation)) | concentration achieving equal maximal stimulation of tyrosinase (melanocyte strain 102b; 6 days treatment)
Ac-Nle-Glu His-D-Phe-Arg-Trp-NH2 (Ac-[Nle]EH[dF]RW-NH2; SMILES CCCC[C@H](NC(C)=O)C(=O)N[C@@H](CCC(=O)O)C(=O)N[C@@H](Cc1c[nH]cn1)C(=O)N[C@H](Cc1ccccc1)C(=O)N[C@@H](CCCNC(=N)N)C(=O)N[C@@H](Cc1c[nH]c2ccccc12)C(N)=O) [CUV9900, hexapeptide, alpha-MSH analogue] | more potent than NDP-MSH | higher maximal level of cAMP than MSH | 284 % of control | 160 % of control | 203 % of control | 385.1 % of control | 388.7 % of control | 386.9 % of control | 55.3% | 15.7% | no effect on its ability to stimulate tyrosinase activity | 120 % of control | 115.7 % of control | 1 pM | greater stimulation of tyrosinase activity than NDP-MSH | 120% | 38 a.u. | 30 a.u. | –
Ac-Ser-Tyr-Ser-Nle-Glu-His-D-Phe-Arg-Trp-Gly-Lys-Pro-Val-NH2 [NDP-MSH, reference compound] | – | higher maximal level of cAMP than MSH | 302 % of control | 164 % of control | 203 % of control | 329.9 % of control | 229.2 % of control | 279.6 % of control | – | – | – | 105 % of control | 105.0 % of control | 1 pM | – | – | 39-40 a.u. | – | 1 nM
